# Measured values published in the supplement of paper PMC10307832.
# Tests used:
# Test in all cases: relative viability (nuclei count vs DMSO), 5 days (fraction); higher = more cells survive
# AZ505 + Phenformin = compound: C1CCC(CC1)N(CCNCCC2=C3C(=C(C=C2)O)NC(=O)CO3)C(=O)CCNCCC4=CC(=C(C=C4)Cl)Cl [AZ505] + N=C(N)NC(=N)NCCc1ccccc1 [Phenformin] (partner 250 µM)
# In short: (§1)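 Relative viability divides the nuclei count in treated wells by that in vehicle wells. Lung cancer cell lines were seeded in 1536-well plates, dosed by pin tool the next day, and fixed and stained after 5 days in one step with final 0.05% Triton X-100, 1% formaldehyde and 1 ug/ml Hoechst. Dosing was a single drug or a fixed anchor-drug dose plus five library-drug doses (not always all listed) in √10 steps, and values are medians of duplicate plates imaged at 4×.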
# Dactolisib + Luminespib = compound: Cn1c(=O)n(-c2ccc(C(C)(C)C#N)cc2)c2c3cc(-c4cnc5ccccc5c4)ccc3ncc21 [Dactolisib] + CCNC(=O)c1noc(-c2cc(C(C)C)c(O)cc2O)c1-c1ccc(CN2CCOCC2)cc1 [Luminespib] (partner 0.01 µM)
# In short: as §1
# AZ505 + OSI-027 = compound: C1CCC(CC1)N(CCNCCC2=C3C(=C(C=C2)O)NC(=O)CO3)C(=O)CCNCCC4=CC(=C(C=C4)Cl)Cl [AZ505] + COc1cccc2cc(-c3nc([C@H]4CC[C@H](C(=O)O)CC4)n4ncnc(N)c34)[nH]c12 [OSI-027] (partner 0.5 µM)
# In short: as §1
# AZ505 + Linsitinib = compound: C1CCC(CC1)N(CCNCCC2=C3C(=C(C=C2)O)NC(=O)CO3)C(=O)CCNCCC4=CC(=C(C=C4)Cl)Cl [AZ505] + C[C@]1(O)C[C@@H](c2nc(-c3ccc4ccc(-c5ccccc5)nc4c3)c3c(N)nccn32)C1 [Linsitinib] (partner 1 µM)
# In short: as §1
cell line,measurement,setting,value
NCI-H522,relative viability,AZ505 + Phenformin; first compound 0.08 µM,0.526
same,relative viability,AZ505 + Phenformin; first compound 0.253 µM,0.521
same,relative viability,AZ505 + Phenformin; first compound 0.8 µM,0.61
same,relative viability,AZ505 + Phenformin; first compound 2.53 µM,0.732
same,relative viability,AZ505 + Phenformin; first compound 8 µM,0.626
same,relative viability,Dactolisib + Luminespib; first compound 0.002 µM,1.15
same,relative viability,Dactolisib + Luminespib; first compound 0.006325 µM,1.17
same,relative viability,Dactolisib + Luminespib; first compound 0.02 µM,1.22
same,relative viability,Dactolisib + Luminespib; first compound 0.06325 µM,0.659
same,relative viability,Dactolisib + Luminespib; first compound 0.2 µM,0.596
same,relative viability,AZ505 + OSI-027; first compound 0.08 µM,0.713
same,relative viability,AZ505 + OSI-027; first compound 0.253 µM,0.583
same,relative viability,AZ505 + OSI-027; first compound 0.8 µM,0.691
same,relative viability,AZ505 + OSI-027; first compound 2.53 µM,0.812
same,relative viability,AZ505 + OSI-027; first compound 8 µM,0.809
NCI-H838,relative viability,AZ505 + Phenformin; first compound 0.08 µM,0.503
same,relative viability,AZ505 + Phenformin; first compound 0.253 µM,0.491
same,relative viability,AZ505 + Phenformin; first compound 0.8 µM,0.49
same,relative viability,AZ505 + Phenformin; first compound 2.53 µM,0.466
same,relative viability,AZ505 + Phenformin; first compound 8 µM,0.579
same,relative viability,Dactolisib + Luminespib; first compound 0.002 µM,0.285
same,relative viability,Dactolisib + Luminespib; first compound 0.006325 µM,0.377
same,relative viability,Dactolisib + Luminespib; first compound 0.02 µM,0.317
same,relative viability,Dactolisib + Luminespib; first compound 0.06325 µM,0.174
same,relative viability,Dactolisib + Luminespib; first compound 0.2 µM,0.159
same,relative viability,AZ505 + Linsitinib; first compound 0.08 µM,0.965
same,relative viability,AZ505 + Linsitinib; first compound 0.253 µM,1.03
same,relative viability,AZ505 + Linsitinib; first compound 0.8 µM,1.02
same,relative viability,AZ505 + Linsitinib; first compound 2.53 µM,0.997
same,relative viability,AZ505 + Linsitinib; first compound 8 µM,0.928
same,relative viability,AZ505 + OSI-027; first compound 0.08 µM,0.402
same,relative viability,AZ505 + OSI-027; first compound 0.253 µM,0.438
same,relative viability,AZ505 + OSI-027; first compound 0.8 µM,0.402
same,relative viability,AZ505 + OSI-027; first compound 2.53 µM,0.34
same,relative viability,AZ505 + OSI-027; first compound 8 µM,0.398
SW 900,relative viability,AZ505 + Phenformin; first compound 0.08 µM,0.618
same,relative viability,AZ505 + Phenformin; first compound 0.253 µM,0.522
same,relative viability,AZ505 + Phenformin; first compound 0.8 µM,0.588
same,relative viability,AZ505 + Phenformin; first compound 2.53 µM,0.695
same,relative viability,AZ505 + Phenformin; first compound 8 µM,0.647
same,relative viability,Dactolisib + Luminespib; first compound 0.002 µM,0.17
same,relative viability,Dactolisib + Luminespib; first compound 0.006325 µM,0.2
same,relative viability,Dactolisib + Luminespib; first compound 0.02 µM,0.157
same,relative viability,Dactolisib + Luminespib; first compound 0.06325 µM,0.174
same,relative viability,Dactolisib + Luminespib; first compound 0.2 µM,0.169
same,relative viability,AZ505 + OSI-027; first compound 0.08 µM,0.441
same,relative viability,AZ505 + OSI-027; first compound 0.253 µM,0.427
same,relative viability,AZ505 + OSI-027; first compound 0.8 µM,0.623
same,relative viability,AZ505 + OSI-027; first compound 2.53 µM,0.753
same,relative viability,AZ505 + OSI-027; first compound 8 µM,0.702
A549,relative viability,AZ505 + Phenformin; first compound 0.08 µM,0.15
same,relative viability,AZ505 + Phenformin; first compound 0.253 µM,0.19
same,relative viability,AZ505 + Phenformin; first compound 0.8 µM,0.145
same,relative viability,AZ505 + Phenformin; first compound 2.53 µM,0.113
same,relative viability,AZ505 + Phenformin; first compound 8 µM,0.166
same,relative viability,AZ505 + Linsitinib; first compound 0.08 µM,0.452
same,relative viability,AZ505 + Linsitinib; first compound 0.253 µM,0.503
same,relative viability,AZ505 + Linsitinib; first compound 0.8 µM,0.622
same,relative viability,AZ505 + Linsitinib; first compound 2.53 µM,0.565
same,relative viability,AZ505 + Linsitinib; first compound 8 µM,0.562
A-427,relative viability,AZ505 + Phenformin; first compound 0.08 µM,0.309
same,relative viability,AZ505 + Phenformin; first compound 0.253 µM,0.255
same,relative viability,AZ505 + Phenformin; first compound 0.8 µM,0.327
same,relative viability,AZ505 + Phenformin; first compound 2.53 µM,0.395
same,relative viability,AZ505 + Phenformin; first compound 8 µM,0.298
same,relative viability,Dactolisib + Luminespib; first compound 0.002 µM,0.737
same,relative viability,Dactolisib + Luminespib; first compound 0.006325 µM,0.834
same,relative viability,Dactolisib + Luminespib; first compound 0.02 µM,0.861
same,relative viability,Dactolisib + Luminespib; first compound 0.06325 µM,0.572
same,relative viability,Dactolisib + Luminespib; first compound 0.2 µM,0.47
same,relative viability,AZ505 + Linsitinib; first compound 0.08 µM,1.13
same,relative viability,AZ505 + Linsitinib; first compound 0.253 µM,1.08
same,relative viability,AZ505 + Linsitinib; first compound 0.8 µM,1.09
same,relative viability,AZ505 + Linsitinib; first compound 2.53 µM,1.11
same,relative viability,AZ505 + Linsitinib; first compound 8 µM,1.09
same,relative viability,AZ505 + OSI-027; first compound 0.08 µM,0.416
same,relative viability,AZ505 + OSI-027; first compound 0.253 µM,0.278
same,relative viability,AZ505 + OSI-027; first compound 0.8 µM,0.376
same,relative viability,AZ505 + OSI-027; first compound 2.53 µM,0.504
same,relative viability,AZ505 + OSI-027; first compound 8 µM,0.492
